What was measured:
Format in all cases: cell-based, human
[1] = test system: CK; assay: CK activity in lysate of ERα expressing HAECT-1 cells; conditions: FIG. 1D
Experimental: (A) The effect of compound 67 on NF-κB mediated luciferase reporter activity in HAECT-1 cells expressing ERα. […] (C) The effect of compound 67 on the human IL-6 promoter luciferase reporter activity in HAECT-1 cells expressing either ERα (squares) or ERβ (diamonds). (D) The remaining lysate from (A) was used to determine CK activity.
(§1) HAECT-1 cells (Chadwick C C, et al., Proc Natl Acad Sciences, 2005, 102(7): 2543-2548) were cultured in EGM (GIBCO, Rockville, Md.) containing 10% FBS, 1% GlutaMAX and 0.1% Antimycotic-Antibiotic in Falcon T-175 culture flasks at 34° C. in 5% CO2 and infected for four hours with Ad5-wt-ER virus. After overnight recovery, the cells were infected for 2 hours with the Ad5-3x(NFκB).Luc or Ad5-IL6.Luc virus. Compound 67 and 2 ng/ml IL-1 were added to the cells for 15-20 h and the cell lysate was assayed for luciferase activity and evaluated for CK expression (Stanbio Laboratories, Texas). The values are reported as mean±SEM with n=4 from at least 3 independent experiments.

[2] = test system: Creatine Kinase; assay: Creatine kinase expression in Ad5-wt-ERα infected HAECT-1 cells (Table 1); conditions: Homo sapiens, HAECT1, read-out: Creatine Kinase EC50
Experimental: T-175 flasks of 100% confluent HAECT-1 cells (immortalized human aortic endothelial cells) were washed with 8 mL of HBSS (HEPES buffered saline solution) and infected for four hours with 6 mL of a 1:10 dilution of Ad5-wt-hERα virus (an adenovirus transfection vector that mediates CMV promoter driven expression of human ERα) in phenol red free Endothelial Cell Basal medium (Clonetics, San Diego Calif., Catalog # CC-3129) containing 0.25% bovine serum albumin (EBM-BSA). After four hours, cells were washed with EBM-BSA and incubated overnight in the same medium. Following overnight incubation, cells were washed with EBM-BSA and infected for 2 hours with 6 mL of a 1:10 dilution of Ad5-3x(NF-κB).Luc virus (Adenovirus luciferase expression vector driven by 3 repeats of the MHC NF-κb site 5′ to the thymidine kinase promoter) in EBM-BSA. […]
ERα infected HAECT-1 cells or control cells were thawed, diluted 42× in warm EBM-BSA, plated into 96-well plates at 0.1 mL/well and incubated for 4 hours at 34° C. […] Luciferase was determined on a Wallac Victor Luminometer (Gaithersburg, Md.) using 10 μL of lysate and mixing with 100 μL of Promega Luciferase Assay reagent. Creatine kinase was determined from the rate of increase in A340 following addition of 100 μL of CK assay reagent (Sigma, cat. No 47-10) to the remainder of the cell lysate. […]

[3] = test system: NF-κB; assay: IL-1β stimulated NF-κB reporter activity in ERα expressing HAECT-1 cells; conditions: 1 μM ICI, 1 μM compound 67, FIG. 1B
Experimental: as §1

Row | EC50 ([1]; Homo sapiens, HAECT1) [nM] | EC50 [2] [nM] | SMILES | stimulation of CK activity [1] | antagonism of the activity of compound 67 on NF-κB reporter [3]
1 | 2 | 5.8 | C[C@]12CC[C@@H]3c4ccc(O)cc4CC[C@H]3[C@@H]1CC[C@@H]2O [Example E2, 17β-estradiol, reference compound] | approximately 1.7 fold | –
2 | – | – | C[C@]12CC[C@@H]3c4ccc(O)cc4C[C@@H](CCCCCCCCC[S+]([O-])CCCC(F)(F)C(F)(F)F)[C@H]3[C@@H]1CC[C@@H]2O (stereo partly shown) [ICI 182,780, reference compound] | – | effectively antagonized

Source: patent US20050256132A1, “Use of ER selective NF-kB inhibitors for the treatment of sepsis” (priority 2003, published 2005)
